Series [1] relates to HL60 (promyeocytic leukaemia). Nature of the series: MTS assay, inhibition of cell proliferation, HL60. Background: Tetrazolium assays rely on reduction of a dye to a coloured formazan, in cell work by metabolically active cells.
Method: (§1) The human cell lines HL60 (promyeocytic leukaemia), MDA435 (breast ductal carcinoma; ATCC reference HBT129) and MDA231 (breast adenocarcinoma; ATCC reference HBT26) were obtained from ATCC. […] SK-OV3 cells (or OV3, ATCC reference HTB77) were kindly provided by NCI (Frederick, Md.).
(§2) The cell lines HCT116, HCT15, MCF7, MDA435, MDA231, PC3, OV3, HL60R and HL60 were grown in RPMI medium, in particular supplemented with 10% fetal calf serum, in the presence of penicillin, streptomycin and fungizone in 75 cm^2 flask under 5% CO2. […] The medium was changed every 2-3 days.
(§3) Cells were plated in 96-well tissue culture plates in 200 μl medium and cultured during 24 h before to be treated with compounds dissolved in DMSO (compound concentrations at a range of 0.5 nM to 10 μM) using a Biomek 2000 or 3000 (Beckman). Controls received the same volume of DMSO (1% final volume). After a 72 h exposure, MTS reagent (Promega) was added and incubated for 3 h at 37° C. The absorbance was then monitored at 490 nm and results were expressed as the value [1-(OD490 treated/OD490 control)×100] corresponding to the percentage of inhibition of cell proliferation.
The subject of a further series is SK-OV3 cells (OV3). Nature of the series: MTS assay, cytotoxicity, OV3. As to conditions: Homo sapiens, SK-OV-3, read-out: Cytotoxicity (IC50).
Series [2] relates to PC3 (prostate adenocarcinoma). As to the kind of experiment: MTS assay, cytotoxicity, PC3. The conditions noted are these: Homo sapiens, read-out: Cytotoxicity (IC50).
Method: (§4) The human cell lines HCT116 (colon adenocarcinoma), PC3 (prostate adenocarcinoma) and HCT15 (colon adenocarcinoma) were obtained from ECACC (Wiltshire, UK).
(§5) The cell lines HCT116, HCT15, MCF7, MDA435, MDA231, PC3, OV3, HL60R and HL60 were grown in RPMI medium, in particular supplemented with 10% fetal calf serum, in the presence of penicillin, streptomycin and fungizone in 75 cm^2 flask under 5% CO2.
as §3
For series [3], the system named is HL60R (resistant HL60 cells). As to the kind of experiment: MTS assay, cytotoxicity, HL60R. The conditions noted are these: Homo sapiens, read-out: Cytotoxicity (IC50).
Method: as §5, §3
Series [4] deals with MDA435 (breast ductal carcinoma). Nature of the series: MTS assay, cytotoxicity, MDA435. The conditions noted are these: Homo sapiens, MDA435, read-out: Cytotoxicity (IC50).
Method: as §1, §2, §3
The subject of series [5] is MDA231 (breast adenocarcinoma). As to the kind of experiment: MTS assay, cytotoxicity, MDA231. As to conditions: Homo sapiens, MDA-MB-231, read-out: Cytotoxicity (IC50).
Method: as §1, §2, §3
Series [6] deals with KB (epidermoid carcinoma). As to the kind of experiment: MTS assay, inhibition of cell proliferation, KB. As to conditions: Homo sapiens, read-out: Cytotoxicity (IC50).
Method: The human cell lines KB (epidermoid carcinoma) and HepG2 (hepatocarcinoma) were obtained from ECACC (Salisbury, UK) and grown in D-MEM medium supplemented with 10% fetal calf serum, in the presence of penicilline, streptomycine and fungizone in 75 cm^2 flask under 5% CO2.
as §3
For series [7], the system named is HCT116 (colon adenocarcinoma). Nature of the series: MTS assay, inhibition of cell proliferation, HCT116. As to conditions: Homo sapiens, HCT-116, read-out: Cytotoxicity (IC50).
Method: as §4, §5, §3
In another series the test system is H9c2 cardiomyocytes. As to conditions: 10 or 100 nM; apoptosis induced by doxorubicin in H9c2 cells. The procedure: The medium was changed every 2-3 days.
H9c2 cells were plated for 24 h in 100 mm Petri dishes at 0,7×10^4 cells/cm^2. Next, the cells were washed and cultured for 12 h in glucose-free medium (Gibco, DMEM w-L-glutamine, w/o D-glucose, sodium pyruvate) supplemented with only 1% fetal calf serum. […] Cells were washed, and subsequently FACS analyses were performed.
Apoptosis was analysed by fluorescence-activated cell sorting analysis (FACS-Calibur, Becton-Dickinson Biosciences). 0,5×10^6 cells were harvested, washed with Annexin Binding Buffer (0,01 M HEPES, 0,14 M NaCl, 2,5 mM CaCl2) and labeled with annexin V (dilution 1:50) and propidium iodide (6,7 μg/ml). All assays were performed at least in triplicate, and the results were analyzed by BD Cell Quest Pro software (Becton-Dickinson Biosciences, Le Pont De Claix, France).

Setting [8] is: read-out: Cytotoxicity (IC50), HL60, MTS, Table 2.
Where [9] appears, read: Homo sapiens, HL-60, read-out: Cytotoxicity (IC50).

The IC50 is the concentration at which inhibition is half-maximal.

Structures are written as SMILES. Like-named read-outs stand apart in the source and are kept apart here.

Method for SK-OV3 cells (OV3): as §1, §2, §3

As to `COc1cc(OC)c2c(c1)OC1(c3ccc(Br)cc3)C(c3ccccc3)CC(NC=O)C21O` (stereo not drawn) [FL22, 3a-(4-Bromophenyl)-6,8-dimethoxy-8b-hydroxy-3-phenyl-1,2,3,3a-tetrahydro-cyclopenta[b]benzofuran-1,8b(1H)-formamide], the IC50 in [1] (setting [8]) amounted to 44 nM.
With `COc1cc(OC)c2c(c1)O[C@@]1(c3ccc(Br)cc3)[C@H](c3ccccc3)C[C@@H](OC(C)=O)[C@@]21O` (racemic) [FL20, 3a-(4-Bromophenyl)-6,8-dimethoxy-3-phenyl-1,2,3,3a-tetrahydro-cyclopenta[b]benzofuran-1,8b(1H)-diol 1-acetate], the IC50 in [1] (setting [9]) worked out at 40 nM.
Consider `COc1cc(OC)c2c(c1)O[C@@]1(c3ccc(Br)cc3)[C@H](c3ccccc3)[C@@H](C(=O)N(C)C)[C@@H](O)[C@@]21O` (racemic) [FL12, 3a-(4-Bromophenyl)-1,8b-dihydroxy-6,8-dimethoxy-N,N-dimethyl-1-oxo-3-phenyl-2,3-3a,8b-tetrahydro-cyclopenta[b]benzofuran-2-carboxamide], for which the IC50 turned out to be 6.7 nM with SK-OV3 cells (OV3); 7.2 nM in series [2]; 12 nM in series [3]; 3.2 nM in [4]; 2.7 nM in [5]; 7 nM in series [6]. Moreover, the IC50 in [1] (setting [9]) was 4 nM; in [7] it was 5.9 nM.
On to `COC(=O)[C@H]1[C@@H](O)[C@@]2(O)c3c(OC)cc(OC)cc3O[C@@]2(c2ccc(OC)cc2)[C@@H]1c1cccc(F)c1` (racemic) [FL16, Methyl 3a-(4-methoxyphenyl)-1,8b-dihydroxy-6,8-dimethoxy-1-oxo-3-(3-fluorophenyl)-2,3-3a,8b-tetrahydro-cyclopenta[b]benzofuran-2-carboxylate], for which the IC50 in series [6] turned out to be 28 nM.
As for `COc1cc(OC)c2c(c1)OC1(c3ccc(Br)cc3)C(c3ccccc3)CC(NS(C)(=O)=O)C21O` (stereo not drawn) [FL24, 3a-(4-Bromophenyl)-6,8-dimethoxy-8b-hydroxy-3-phenyl-1,2,3,3a-tetrahydro-cyclopenta[b]benzofuran-1,8b(1H)-methanesulfonamide], in series [1] (setting [8]), the IC50 was 580 nM.
With `COc1cc(OC)c2c(c1)O[C@@]1(c3ccc(Br)cc3)[C@H](c3ccccc3)[C@@H](C(N)=O)[C@@H](O)[C@@]21O` (racemic) [FL14, 3a-(4-Bromophenyl)-1,8b-dihydroxy-6,8-dimethoxy-1-oxo-3-phenyl-2,3-3a,8b-tetrahydro-cyclopenta[b]benzofuran-2-carboxamide], the IC50 in the series with SK-OV3 cells (OV3) was 2.1 nM; in [2] it was 3.7 nM; in series [3] it was 18 nM; in series [4] it was 1.5 nM; in series [5] it was 1 nM; in [6], 2 nM. For the same molecule, the IC50 amounted to 1 nM in series [1] (setting [9]) and 1.8 nM in series [7].
Take `COC(=O)[C@H]1[C@@H](O)[C@@]2(O)c3ccc(OC)cc3O[C@@]2(c2ccc(Br)cc2)[C@@H]1c1ccccc1` (racemic) [FL5, Methyl 3a-(4-bromophenyl)-1,8b-dihydroxy-8-methoxy-1-oxo-3-phenyl-2,3-3a,8b-tetrahydro-cyclopenta[b]benzofuran-2-carboxylate]: the IC50 with SK-OV3 cells (OV3) was found to be 101 nM; in series [2], 174 nM; in series [3], 44 nM; in series [4], 65 nM; in series [5], 27 nM; in series [6], 165 nM. Moreover, the IC50 in series [1] (setting [9]) was 65 nM; in series [7] it was 96 nM.
For `COc1cc(OC)c2c(c1)O[C@@]1(c3ccc(Br)cc3)[C@H](c3cccc(F)c3)[C@@H](C(N)=O)[C@@H](O)[C@@]21O` (racemic) [FL18, 3a-(4-Bromophenyl)-1,8b-dihydroxy-6,8-dimethoxy-1-oxo-3-(3-fluorophenyl)-2,3-3a,8b-tetrahydro-cyclopenta[b]benzofuran-2-carboxamide], the IC50 in series [6] worked out at 14 nM.
Take `COc1ccc2c(c1)O[C@@]1(c3ccc(Br)cc3)[C@H](c3ccccc3)C[C@@H](O)[C@@]21O` (racemic) [FL6, 3a-(4-Bromophenyl)-8-methoxy-3-phenyl-1,2,3,3a-tetrahydro-cyclopenta[b]benzofuran-1,8b(1H)-diol]: in the series with H9c2 cardiomyocytes, the “Activity for cytotoxicity and cardioprotection (FIG. 13)” value was “no or weak such activity”. Further, the IC50 in the series with SK-OV3 cells (OV3) worked out at 251 nM; in [2] it was 224 nM; in series [3], 67 nM; in [4], 205 nM; in series [5] it was 48 nM; in series [6] it was 255 nM. Besides, the IC50 amounted to 115 nM in [1] (setting [9]) and 108 nM in series [7].
Regarding `CC(=O)O[C@@]12CO[C@@H]1C[C@H](O)[C@@]1(C)C(=O)[C@H](O)C3=C(C)[C@@H](OC(=O)[C@H](O)[C@@H](NC(=O)OC(C)(C)C)c4ccccc4)C[C@@](O)([C@@H](OC(=O)c4ccccc4)[C@H]21)C3(C)C` [Taxotere, reference compound], the IC50 in the series with SK-OV3 cells (OV3) was determined as 0.51 nM; in series [2], 1.4 nM; in series [3], 531 nM; in [4], 0.25 nM; in [5], 0.018 nM; in [6], 0.17 nM. In addition, the figures for the IC50 in series [1] (setting [9]) and in series [7] were 0.5 nM and 0.52 nM, respectively.
Take `CNC(=O)[C@H]1[C@@H](O)[C@@]2(O)c3c(OC)cc(OC)cc3O[C@@]2(c2ccc(Br)cc2)[C@@H]1c1ccccc1` (racemic) [FL13, 3a-(4-Bromophenyl)-1,8b-dihydroxy-6,8-dimethoxy-N-methyl-1-oxo-3-phenyl-2,3-3a,8b-tetrahydro-cyclopenta[b]benzofuran-2-carboxamide]: the 50% inhibitory concentration (IC50) in the series with SK-OV3 cells (OV3) came out at 3.8 nM; in [2], 3.3 nM; in series [3], 16 nM; in series [4] it was 2.6 nM; in [5] it was 1.9 nM; in series [6], 4 nM. Also, the IC50 in series [1] (setting [9]) came to 2 nM; in series [7], 3.8 nM.
On to `CC[C@]1(O)C[C@@H]2CN(CCc3c([nH]c4ccccc34)[C@@](C(=O)OC)(c3cc4c(cc3OC)N(C)[C@H]3[C@@](O)(C(=O)OC)[C@H](OC(C)=O)[C@]5(CC)C=CCN6CC[C@]43[C@@H]65)C2)C1` [Vinblastin, vinblastine, reference compound], for which the 50% inhibitory concentration (IC50) is 2.7 nM with SK-OV3 cells (OV3); 5.5 nM in series [2]; above 100 nM in [3]; 1.24 nM in series [4]; 0.63 nM in series [5]; 0.8 nM in [6]. Besides, the IC50 worked out at 1.11 nM in series [1] (setting [9]) and 1.42 nM in series [7].
Regarding `COc1cc(OC)c2c(c1)OC1(c3ccc(Br)cc3)C(c3ccccc3)CC(NC=O)C21O` (stereo not drawn) [FL23, 3a-(4-Bromophenyl)-6,8-dimethoxy-8b-hydroxy-3-phenyl-1,2,3,3a-tetrahydro-cyclopenta[b]benzofuran-1,8b(1H)-formamide], the IC50 in [1] (setting [8]) stood at 2 nM.
With `COc1cc(OC)c2c(c1)O[C@@]1(c3ccc(Br)cc3)[C@H](c3ccccc3)C[C@@H](OC=O)[C@@]21O` (racemic) [FL19, 3a-(4-Bromophenyl)-6,8-dimethoxy-3-phenyl-1,2,3,3a-tetrahydro-cyclopenta[b]benzofuran-1,8b(1H)-diol 1-formate], the IC50 in [1] (setting [9]) came out at 7 nM.
In the case of `COC(=O)[C@H]1[C@@H](O)[C@@]2(O)c3c(OC)cc(OC)cc3O[C@@]2(c2ccc(Br)cc2)[C@@H]1c1ccccc1` (racemic) [FL10, Methyl 3a-(4-bromophenyl)-1,8b-dihydroxy-6,8-dmethoxy-1-oxo-3-phenyl-2,3-3a,8b-tetrahydro-cyclopenta[b]benzofuran-2-Carboxylate], the IC50 in the series on SK-OV3 cells (OV3) is 21 nM; in series [2], 29 nM; in [3], 14 nM; in series [4] it was 15 nM; in series [5] it was 8.7 nM; in series [6], 24 nM. For the same molecule, the half-maximal inhibitory concentration (IC50) in [1] (setting [9]) amounted to 14 nM; in series [7] it was 18 nM.
In the case of `CCC(=O)O[C@@H]1C[C@@H](c2ccccc2)[C@]2(c3ccc(Br)cc3)Oc3cc(OC)cc(OC)c3[C@]12O` (racemic) [FL21, 3a-(4-Bromophenyl)-6,8-dimethoxy-3-phenyl-1,2,3,3a-tetrahydro-cyclopenta[b]benzofuran-1,8b(1H)-diol 1-propionate], in series [1] (setting [9]), the IC50 worked out at 50 nM.
Turning to `COc1ccc([C@@]23Oc4cc(OC)cc(OC)c4[C@]2(O)[C@H](O)C[C@H]3c2cccc(F)c2)cc1` (racemic) [FL15, 3a-(4-methoxyphenyl)-6,8-dimethoxy-3-(3-fluorophenyl)-1,2,3,3a-tetrahydro-cyclopenta[b]benzofuran-1,8b(1H)-diol], the IC50 in series [6] stood at 60 nM.
On to `COc1cc(OC)c2c(c1)OC1(c3ccc(Br)cc3)C(c3ccccc3)CC(NS(C)(=O)=O)C21O` (stereo not drawn) [FL25, 3a-(4-Bromophenyl)-6,8-dimethoxy-8b-hydroxy-3-phenyl-1,2,3,3a-tetrahydro-cyclopenta[b]benzofuran-1,8b(1H)-methanesulfonamide], for which, in series [1] (setting [8]), the IC50 was found to be 16 nM.

Values taken from patent publication US20120101153A1, “ROCAGLAOL DERIVATIVES AS CARDIOPROTECTANT AGENTS AND AS ANTINEOPLASTIC AGENTS” (Universite De Strasbourg, priority 2008, published 2012).
